Key:
[1] = test system: lateral root clock (pDR5:LUC); experiment: Lateral root clock oscillation amplitude (pDR5:LUC reporter); type: in vivo, Arabidopsis thaliana; conditions: for amplitude of the lateral root clock relative to D15 treatment (rescue of D15 inhibition of lateral root initiation): roots treated with D15 for several days, then 10 μM apocarotenoid added, FIG. 4A
Arabidopsis thaliana = experiment: Root phenotyping: primary root growth, lateral root capacity/branching, lateral root primordia; type: in vivo
Arabidopsis roots = experiment: Merocyanine aldehyde RBP reporter fluorescence in Arabidopsis roots; type: in vivo, Arabidopsis thaliana; conditions: D15 treatment
CCD8 = target: T1, CCD8 (Arabidopsis thaliana, UniProt Q8VY26); conditions: stated as known; cited from earlier work
T1 sequence (Q8VY26 57-570): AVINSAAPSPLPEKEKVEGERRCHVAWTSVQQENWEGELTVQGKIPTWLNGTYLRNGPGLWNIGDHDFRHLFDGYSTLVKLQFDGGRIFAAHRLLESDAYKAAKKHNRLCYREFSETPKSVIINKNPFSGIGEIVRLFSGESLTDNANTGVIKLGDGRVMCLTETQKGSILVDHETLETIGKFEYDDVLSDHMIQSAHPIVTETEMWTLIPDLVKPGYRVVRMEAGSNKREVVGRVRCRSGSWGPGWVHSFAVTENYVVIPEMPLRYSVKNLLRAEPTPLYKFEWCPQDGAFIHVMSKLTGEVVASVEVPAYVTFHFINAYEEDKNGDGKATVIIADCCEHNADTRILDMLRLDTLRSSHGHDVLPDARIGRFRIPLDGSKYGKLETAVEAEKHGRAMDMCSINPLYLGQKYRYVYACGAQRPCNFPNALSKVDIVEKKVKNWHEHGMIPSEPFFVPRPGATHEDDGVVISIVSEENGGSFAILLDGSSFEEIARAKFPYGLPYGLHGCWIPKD

Arabidopsis tissue = experiment: Extraction, derivatization and HPLC-MS analysis of apocarotenoid levels in plant tissue upon D15 treatment; type: in vivo, Arabidopsis thaliana; conditions: D15 treated plants, whole plant; FIG. 2B
[2] = co-treatment with 500 nM Apo14 and D15, FIG. 4B
[3] = co-treatment with 1 μM retinal and 125 μM D15, FIG. 4C

CC1=C(/C=C/C(C)=C/C=C/C(C)=C/C=C/C=C(\C)C=O)C(C)(C)CCC1 [apo-12-carotenal]
amplitude of the lateral root clock relative to D15 treatment (rescue of D15 inhibition of lateral root initiation) [1]: partially rescue

CC1=C(/C=C/C(C)=C/C=C/C(C)=C/C=C/C=O)C(C)(C)CCC1 [Apo14, apo-14-carotenal]
rescue of D15 inhibition of lateral root development (lateral root capacity) (Arabidopsis thaliana; [2]): fully rescue
rescue of D15 inhibition of primary root growth (Arabidopsis thaliana; [2]): fully rescue
amplitude of the lateral root clock relative to D15 treatment (rescue of D15 inhibition of lateral root initiation) [1]: significantly increased

CC1=C(/C=C/C(C)=C/C=C/C(C)=C/C=O)C(C)(C)CCC1 [retinal, apo-16-carotenal]
rescue of D15 inhibition of lateral root development (lateral root branching) (Arabidopsis thaliana; [3]): fully rescue
rescue of D15 inhibition of primary root growth (Arabidopsis thaliana; [3]): fully rescue
primary root length (Arabidopsis thaliana; retinal alone, absence of D15): did not affect
number of lateral root primordia (Arabidopsis thaliana; retinal alone, absence of D15, FIG. 4D): significantly increase
amplitude of the lateral root clock relative to D15 treatment (rescue of D15 inhibition of lateral root initiation) [1]: significantly increased

CC1=C(/C=C/C(C)=C/C=C/C(C)=C/C=C/C=C(C)/C=C/C=O)C(C)(C)CCC1 [Apo-10-carotenal, apo-10-carotenal]
amplitude of the lateral root clock relative to D15 treatment (rescue of D15 inhibition of lateral root initiation) [1]: partially rescue

N-(4-fluorobenzyl)-methoxycinnamic hydroxamic acid [D15]
merocyanine aldehyde fluorescence in the root meristem (Arabidopsis roots): reduced
number of merocyanine aldehyde pulses (Arabidopsis roots; elongation and differentiation zones, FIG. 1E): significantly reduced
CCD8 inhibition (CCD8): can inhibit
root growth and lateral root organogenesis (Arabidopsis thaliana; D15 treatment): defects
amplitude of oscillations in pDR5:LUC marker line ([1]; D15-treated plants, FIG. 3): significantly decreased
levels of more hydrophilic apocarotenoids such as beta-cyclocitral and beta-ionone (Arabidopsis tissue): did not affect
levels of retinal as well as the related apocarotenoids (Arabidopsis tissue): reduced
